The text below walks through data of publication PMC6934184, “Selective DNA-PKcs inhibition extends the therapeutic index of localized radiotherapy and chemotherapy” (The Journal of Clinical Investigation, 2019).

This assay concerns the target T1, RPS6KA1 (RSK1) (Homo sapiens, UniProt Q15418).
T1 construct: purchased Thermo Fisher Scientific (Life Technologies) SelectScreen
The experiment in a line: SelectScreen Z'LYTE. Format: biochemical. The essentials: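 Percent values come from Thermo SelectScreen profiling of NU5455, combining activity and binding assays. CSF1R was run in Z'LYTE format at Km app ATP, and CAMK1 in Adapta format with ATP listed at 10.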

T1 sequence (Q15418 whole entry): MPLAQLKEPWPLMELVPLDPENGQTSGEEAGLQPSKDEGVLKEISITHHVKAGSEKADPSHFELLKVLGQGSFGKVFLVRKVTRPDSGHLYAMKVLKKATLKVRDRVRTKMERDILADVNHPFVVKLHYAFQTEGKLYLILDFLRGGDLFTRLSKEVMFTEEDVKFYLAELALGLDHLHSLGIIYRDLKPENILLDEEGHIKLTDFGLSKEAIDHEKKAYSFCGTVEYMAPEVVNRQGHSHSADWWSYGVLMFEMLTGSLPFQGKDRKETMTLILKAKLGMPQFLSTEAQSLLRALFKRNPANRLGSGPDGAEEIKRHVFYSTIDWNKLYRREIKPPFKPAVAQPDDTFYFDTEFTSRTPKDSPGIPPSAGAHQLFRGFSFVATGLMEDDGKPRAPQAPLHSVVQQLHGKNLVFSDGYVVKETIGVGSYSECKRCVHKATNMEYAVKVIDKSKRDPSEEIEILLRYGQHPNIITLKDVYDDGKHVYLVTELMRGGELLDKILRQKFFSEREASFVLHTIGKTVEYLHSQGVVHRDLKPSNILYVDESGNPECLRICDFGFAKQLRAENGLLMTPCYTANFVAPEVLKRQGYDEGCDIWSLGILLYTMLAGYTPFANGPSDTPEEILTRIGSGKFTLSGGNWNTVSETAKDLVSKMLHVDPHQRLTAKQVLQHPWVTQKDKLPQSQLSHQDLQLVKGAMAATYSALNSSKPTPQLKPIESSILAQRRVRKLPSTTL

For the compound `CN(C(=O)CN1CCOCC1)c1ccc2sc3c(-c4cccc5c(=O)cc(N6CC7CCC(C6)O7)oc45)cccc3c2c1` [NU5455], 1 µM produced 5.7% inhibition.

As usually defined, the inhibition is the drop in the measured response relative to a control, in per cent. Higher therefore signals a response far below the control.
